*1 amine or outer side, *2 acyl side, *3 side chain or, on linkers, in order; H or OH if unused. Where a SMILES comes first, the peptide text is derived from it. Side-chain parts run from the residue outwards. [ ]: non-standard residue; d: D form. The star is where a group is joined. X14 = CCCCCCCCCCCCCCC(=O)N[C@@H](CCC(=O)N[C@@H](CCC(=O)N[C@@H](CCC(=O)NCCCC[C@H](NC(=O)CCC(=O)NCCCOCCOCCOCCCNC(=O)CCC(=O)NCCCOCCOCCOCCCNC(=O)CCC(=O)NCCCOCCOCCOCCCN*)C(N)=O)C(=O)O)C(=O)O)C(=O)O; X8 = CCCCCCCCCCCCCCCC(=O)N[C@@H](CCC(=O)N[C@@H](CCC(=O)N[C@@H](CCC(=O)NCCCOCCOCCOCCCNC(=O)CCC(=O)NCCCOCCOCCOCCCNC(=O)CCC(=O)NCCCOCCOCCOCCCN*)C(=O)O)C(=O)O)C(=O)O; PEG12 = NCCOCCOCCOCCOCCOCCOCCOCCOCCOCCOCCOCCOCCC(=O)O; γGlu = O=C(O)[C@H](CCC(=O)[*:2])N[*:1]; 1Nal = N[C@@H](Cc1cccc2ccccc12)C(=O)O; Stearoyl = CCCCCCCCCCCCCCCCCC(=O)*; Palmitoyl = CCCCCCCCCCCCCCCC(=O)*; PEG4 = NCCOCCOCCOCCOCCC(=O)O; Suc = O=C(CCC(=O)[*:2])[*:1]; αMeK = C[C@](N)(CCCCN)C(=O)O; Nle = CCCC[C@H](N)C(=O)O; AEEA = NCCOCCOCC(=O)O; Aib = CC(C)(N)C(=O)O
Biological target: T1, RXFP1 (Homo sapiens, UniProt Q9HBX9)
T1 construct: OVCAR5 cells expressing endogenous RXFP1; endogenous in cells; host or cells: OVCAR5 cells
T1 sequence (Q9HBX9 1-757): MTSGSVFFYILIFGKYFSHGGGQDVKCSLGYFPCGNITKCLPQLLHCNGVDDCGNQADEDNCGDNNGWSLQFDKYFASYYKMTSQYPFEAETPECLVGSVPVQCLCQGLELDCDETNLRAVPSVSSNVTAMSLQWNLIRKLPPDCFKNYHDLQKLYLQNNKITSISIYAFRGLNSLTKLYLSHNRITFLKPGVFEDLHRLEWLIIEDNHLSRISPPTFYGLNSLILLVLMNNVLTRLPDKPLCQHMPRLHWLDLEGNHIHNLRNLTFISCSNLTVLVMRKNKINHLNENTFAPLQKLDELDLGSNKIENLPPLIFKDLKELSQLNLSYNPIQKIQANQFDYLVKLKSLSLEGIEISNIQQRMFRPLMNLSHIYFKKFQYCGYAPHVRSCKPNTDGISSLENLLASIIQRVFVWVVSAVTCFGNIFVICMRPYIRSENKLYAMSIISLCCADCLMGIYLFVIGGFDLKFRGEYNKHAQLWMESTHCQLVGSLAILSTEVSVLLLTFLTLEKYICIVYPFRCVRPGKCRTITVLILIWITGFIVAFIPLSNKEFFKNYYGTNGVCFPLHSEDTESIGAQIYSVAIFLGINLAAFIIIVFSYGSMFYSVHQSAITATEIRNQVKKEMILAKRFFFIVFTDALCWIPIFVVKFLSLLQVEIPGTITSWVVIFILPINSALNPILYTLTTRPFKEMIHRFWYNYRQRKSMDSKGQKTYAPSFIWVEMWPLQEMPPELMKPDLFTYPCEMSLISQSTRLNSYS
Assay: OVCAR5 cAMP assay (HTRF), RXFP1 agonist activity
Format: cell-based
Details: for EC50: OVCAR5 cells, cAMP HTRF, read-out: EC50 (nM), OVCAR 5 cells (cAMP); for Emax: OVCAR-5, maximal cAMP relative to H2-relaxin maximum (100%), read-out: EMax, OVCAR 5 cells (cAMP)
Outline: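 cAMP accumulation readout: after 1 mM IBMX for 40 min, endogenous-RXFP1 OVCAR5 cells got rising peptide concentrations without FCS, 30 min, 37° C, then lysis with HTRF cAMP reagents. Nonlinear regression gave EC50; Emax expressed relative to H2-relaxin maximum, same occasion.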

Row | SMILES | EC50 [nM] | Emax [%]
1 | CCCCCCCCCCCCCCCCCC(=O)N[C@@H](CCC(=O)N[C@@H](CCC(=O)N[C@@H](CCC(=O)NCCOCCOCC(=O)NCCOCCOCC(=O)NCCOCCOCC(=O)NCCCC[C@H](NC(=O)[C@H](CCCCNC(C)=O)NC(=O)[C@H](CCCCN)NC(=O)[C@H](CCCNC(=N)N)NC(=O)C(C)(C)NC(=O)[C@H](CO)NC(=O)[C@H](Cc1ccc(O)cc1)NC(=O)[C@@H](NC(=O)[C@H](CO)NC(=O)[C@H](CCCC)NC(=O)CNC(=O)[C@H](CCC(=O)O)NC(=O)C(C)(C)NC(=O)C(C)(C)NC(=O)[C@@H](NC(=O)[C@H](CCCCNC(C)=O)NC(=O)[C@H](C)NC(=O)[C@H](CCCNC(=N)N)NC(=O)[C@@H](NC(=O)[C@H](CCCCN)NC(=O)[C@H](CCC(=O)O)NC(=O)[C@H](CCCNC(=N)N)NC(=O)CNC(=O)[C@H](CCC(=O)O)NC(=O)[C@H](CC(C)C)NC(C)=O)C(C)C)[C@@H](C)CC)[C@@H](C)O)C(N)=O)C(=O)O)C(=O)O)C(=O)O [compound 78] (Ac-LEGREKVRAK(Ac)I[Aib][Aib]EG[Nle]STYS[Aib]RKK(Ac)K([AEEA-AEEA-AEEA-γGlu-γGlu-γGlu-Stearoyl])-NH2) | 1.04 | 73
2 | CCCCCCCCCCCCCCCC(=O)NCCCC[C@H](NC(=O)[C@H](CCCCN)NC(=O)[C@H](CCCNC(=N)N)NC(=O)C(C)(C)NC(=O)[C@H](CO)NC(=O)[C@H](Cc1c[nH]c2ccccc12)NC(=O)[C@@H](NC(=O)[C@H](CO)NC(=O)[C@H](CCCC)NC(=O)CNC(=O)[C@H](CCC(=O)O)NC(=O)C(C)(C)NC(=O)C(C)(C)NC(=O)[C@@H](NC(=O)[C@H](C)NC(=O)[C@H](C)NC(=O)[C@H](CCCNC(=N)N)NC(=O)[C@@H](NC(=O)[C@H](CCCCN)NC(=O)[C@H](CCC(=O)O)NC(=O)[C@H](CCCNC(=N)N)NC(=O)CNC(=O)[C@H](CCC(=O)O)NC(=O)[C@H](CC(C)C)NC(C)=O)C(C)C)[C@@H](C)CC)[C@@H](C)O)C(N)=O [compound 1] (Ac-LEGREKVRAAI[Aib][Aib]EG[Nle]STWS[Aib]RKK(Palmitoyl)-NH2) |  | 85
3 | CCCCCCCCCCCCCCCCCC(=O)N[C@@H](CCC(=O)N[C@@H](CCC(=O)N[C@@H](CCC(=O)NCCOCCOCC(=O)NCCOCCOCC(=O)NCCOCCOCC(=O)NCCCC[C@H](NC(=O)[C@H](CCCCN)NC(=O)[C@H](CCCNC(=N)N)NC(=O)C(C)(C)NC(=O)[C@H](CO)NC(=O)[C@H](Cc1cccc2ccccc12)NC(=O)[C@@H](NC(=O)[C@H](CO)NC(=O)[C@H](CCCC)NC(=O)CNC(=O)[C@H](CCC(=O)O)NC(=O)C(C)(C)NC(=O)C(C)(C)NC(=O)[C@@H](NC(=O)[C@H](CCCCNC(C)=O)NC(=O)[C@H](C)NC(=O)[C@H](CCCNC(=N)N)NC(=O)[C@@H](NC(=O)[C@H](CCCCN)NC(=O)[C@H](CCC(=O)O)NC(=O)[C@H](CCCNC(=N)N)NC(=O)CNC(=O)[C@H](CCC(=O)O)NC(=O)[C@H](CC(C)C)NC(C)=O)C(C)C)[C@@H](C)CC)[C@@H](C)O)C(N)=O)C(=O)O)C(=O)O)C(=O)O [compound 79] (Ac-LEGREKVRAK(Ac)I[Aib][Aib]EG[Nle]ST[1Nal]S[Aib]RKK([AEEA-AEEA-AEEA-γGlu-γGlu-γGlu-Stearoyl])-NH2) | 0.4 | 75
4 | CCCCCCCCCCCCCCCCCC(=O)N[C@@H](CCC(=O)N[C@@H](CCC(=O)N[C@@H](CCC(=O)NCCCC[C@H](NC(=O)CCOCCOCCOCCOCCOCCOCCOCCOCCOCCOCCOCCOCCNC(=O)[C@H](CCCCNC(C)=O)NC(=O)[C@H](CCCCN)NC(=O)[C@H](CCCNC(=N)N)NC(=O)C(C)(C)NC(=O)[C@H](CO)NC(=O)[C@H](Cc1ccc(O)cc1)NC(=O)[C@@H](NC(=O)[C@H](CO)NC(=O)[C@H](CCCC)NC(=O)CNC(=O)[C@H](CCC(=O)O)NC(=O)C(C)(C)NC(=O)C(C)(C)NC(=O)[C@@H](NC(=O)[C@H](CCCCNC(C)=O)NC(=O)[C@H](C)NC(=O)[C@H](CCCNC(=N)N)NC(=O)[C@@H](NC(=O)[C@H](CCCCN)NC(=O)[C@H](CCC(=O)O)NC(=O)[C@H](CCCNC(=N)N)NC(=O)CNC(=O)[C@H](CCC(=O)O)NC(=O)[C@H](CC(C)C)NC(C)=O)C(C)C)[C@@H](C)CC)[C@@H](C)O)C(N)=O)C(=O)O)C(=O)O)C(=O)O [compound 46] (Ac-LEGREKVRAK(Ac)I[Aib][Aib]EG[Nle]STYS[Aib]RKK(Ac)[PEG12]K([γGlu-γGlu-γGlu-Stearoyl])-NH2) | 0.61 | 79

Continued, values first:

Row | EC50 [nM] | Emax [%] | SMILES
5 | 0.08 | 94 | CCCCCCCCCCCCCCCC(=O)N[C@@H](CCC(=O)N[C@@H](CCC(=O)N[C@@H](CCC(=O)NCCCOCCOCCOCCCNC(=O)CCC(=O)NCCCOCCOCCOCCCNC(=O)CCC(=O)NCCCOCCOCCOCCCNC(=O)CCC(=O)NCCCC[C@H](NC(=O)[C@H](CCCCNC(C)=O)NC(=O)[C@H](C)NC(=O)[C@H](CCCNC(=N)N)NC(=O)[C@](C)(CCCCN)NC(=O)[C@H](CO)NC(=O)[C@H](Cc1ccccc1)NC(=O)[C@@H](NC(=O)[C@H](CO)NC(=O)[C@H](CCCC)NC(=O)CNC(=O)[C@H](CCC(=O)O)NC(=O)C(C)(C)NC(=O)C(C)(C)NC(=O)[C@@H](NC(=O)[C@H](CCCCNC(C)=O)NC(=O)[C@H](C)NC(=O)[C@H](CCCNC(=N)N)NC(=O)[C@@H](NC(=O)[C@H](CCCCN)NC(=O)[C@H](CCC(=O)O)NC(=O)[C@H](CCCNC(=N)N)NC(=O)CNC(=O)[C@H](CCC(=O)O)NC(=O)[C@H](CC(C)C)NC(C)=O)C(C)C)[C@@H](C)CC)[C@@H](C)O)C(N)=O)C(=O)O)C(=O)O)C(=O)O [compound 183] (Ac-LEGREKVRAK(Ac)I[Aib][Aib]EG[Nle]STFS[αMeK]RAK(Ac)K([Suc-X8])-NH2)
6 | 1.21 | 83 | CCCCCCCCCCCCCCCC(=O)N[C@@H](CCC(=O)NCCCC[C@H](NC(=O)CC[C@H](NC(=O)CC[C@H](NC(=O)COCCOCCNC(=O)COCCOCCNC(=O)COCCOCCNC(=O)[C@H](CCCCNC(C)=O)NC(=O)[C@H](CCCCN)NC(=O)[C@H](CCCNC(=N)N)NC(=O)C(C)(C)NC(=O)[C@H](CO)NC(=O)[C@H](Cc1c[nH]c2ccccc12)NC(=O)[C@@H](NC(=O)[C@H](CO)NC(=O)[C@H](CCCC)NC(=O)CNC(=O)[C@H](CCC(=O)O)NC(=O)C(C)(C)NC(=O)C(C)(C)NC(=O)[C@@H](NC(=O)[C@H](CCC(N)=O)NC(=O)[C@H](C)NC(=O)[C@H](CCCNC(=N)N)NC(=O)[C@@H](NC(=O)[C@H](CCCCN)NC(=O)[C@H](CCC(=O)O)NC(=O)[C@H](CCCNC(=N)N)NC(=O)CNC(=O)[C@H](CCC(=O)O)NC(=O)[C@H](CC(C)C)NC(C)=O)C(C)C)[C@@H](C)CC)[C@@H](C)O)C(=O)O)C(=O)O)C(N)=O)C(=O)O [compound 119] (Ac-LEGREKVRAQI[Aib][Aib]EG[Nle]STWS[Aib]RKK(Ac)[AEEA][AEEA][AEEA][γGlu][γGlu]K([γGlu-Palmitoyl])-NH2)
7 |  | 88 | CCCCCCCCCCCCCCCCCC(=O)N[C@@H](CCC(=O)N[C@@H](CCC(=O)N[C@@H](CCC(=O)NCCCC[C@H](NC(=O)CCOCCOCCOCCOCCNC(=O)CCOCCOCCOCCOCCNC(=O)[C@H](CCCCNC(C)=O)NC(=O)[C@H](CCCCN)NC(=O)[C@H](CCCNC(=N)N)NC(=O)C(C)(C)NC(=O)[C@H](CO)NC(=O)[C@H](Cc1c[nH]c2ccccc12)NC(=O)[C@@H](NC(=O)[C@H](CO)NC(=O)[C@H](CCCC)NC(=O)CNC(=O)[C@H](CCC(=O)O)NC(=O)C(C)(C)NC(=O)C(C)(C)NC(=O)[C@@H](NC(=O)[C@H](CCCCNC(C)=O)NC(=O)[C@H](C)NC(=O)[C@H](CCCNC(=N)N)NC(=O)[C@@H](NC(=O)[C@H](CCCCN)NC(=O)[C@H](CCC(=O)O)NC(=O)[C@H](CCCNC(=N)N)NC(=O)CNC(=O)[C@H](CCC(=O)O)NC(=O)[C@H](CC(C)C)NC(C)=O)C(C)C)[C@@H](C)CC)[C@@H](C)O)C(N)=O)C(=O)O)C(=O)O)C(=O)O [compound 124] (Ac-LEGREKVRAK(Ac)I[Aib][Aib]EG[Nle]STWS[Aib]RKK(Ac)[PEG4][PEG4]K([γGlu-γGlu-γGlu-Stearoyl])-NH2)
8 |  | 100 | CCCCCCCCCCCCCCC(=O)N[C@@H](CCC(=O)N[C@@H](CCC(=O)N[C@@H](CCC(=O)NCCCC[C@H](NC(=O)CCC(=O)NCCCOCCOCCOCCCNC(=O)CCC(=O)NCCCOCCOCCOCCCNC(=O)CCC(=O)NCCCOCCOCCOCCCNC(=O)[C@H](CCCCNC(C)=O)NC(=O)[C@H](C)NC(=O)[C@H](CCCNC(=N)N)NC(=O)[C@](C)(CCCCN)NC(=O)[C@H](CO)NC(=O)[C@H](Cc1ccccc1)NC(=O)[C@@H](NC(=O)[C@H](CO)NC(=O)[C@H](CCCC)NC(=O)CNC(=O)[C@H](CCC(=O)O)NC(=O)C(C)(C)NC(=O)C(C)(C)NC(=O)[C@@H](NC(=O)[C@H](CCCCNC(C)=O)NC(=O)[C@H](C)NC(=O)[C@H](CCCNC(=N)N)NC(=O)[C@@H](NC(=O)[C@H](CCCCN)NC(=O)[C@H](CCC(=O)O)NC(=O)[C@H](CCCNC(=N)N)NC(=O)CNC(=O)[C@H](CCC(=O)O)NC(=O)[C@H](CC(C)C)NC(C)=O)C(C)C)[C@@H](C)CC)[C@@H](C)O)C(N)=O)C(=O)O)C(=O)O)C(=O)O [compound 188] (Ac-LEGREKVRAK(Ac)I[Aib][Aib]EG[Nle]STFS[αMeK]RAK(Ac)-X14)
